Experimental findings from PubChem BioAssay AID1419 (Emory University Molecular Libraries Screening Center, 2008) are described below.

The nature of this assay: blockers of an Epstein-Barr virus protein-peptide interaction – biochemical, fluorescence polarization, dose response (AID 1419). To be noted: cell-free protein-peptide binding, 2 h; for fold change: measured here: P channel fold over control, at 54 µM. On the technique in general: In fluorescence polarisation assays a small probe gives low polarisation when free and higher when bound to something large.

The source made the active and inactive calls. The rule behind the calls is not given here.

In the case of `CC1=CC(=C(C#N)c2nc3ccccc3s2)C=C(C)N1Cc1ccco1`, the IC50 (usually the concentration that gives 50% inhibition) is 3.8 µM and the fold change was determined as 15.7.
With `CSc1nc(N(CCO)CCO)c2sc3nc(-c4ccco4)c4c(c3c2n1)CCC4`, the IC50 was > 54 µM (inactive) and the fold change was 1.07.
The matching figures for `COc1cc(/C=C2\SC(=O)N(c3ccc(Cl)cc3)C2=O)cc([N+](=O)[O-])c1O`: 4.58 µM and 1.13.
For `COc1ccc2nc(C)cc(N3CCOCC3)c2c1`, the IC50 was > 54 µM (inactive) and the fold change was determined as 1.04.
Consider `Nn1c(Cc2ccccc2F)nnc1SCC(=O)N1CC(=O)Nc2ccccc21`, for which the IC50 was > 54 µM (inactive) and the fold change is 1.
For the molecule `O=C(CSc1nnc(SCc2ccccc2)s1)N/N=C/C=C\c1ccco1`, the IC50 was > 54 µM (inactive) and the fold change amounted to 1.04.
For `Nc1cc2nc3ccccc3nc2cc1N`, in that order: under 0.42 µM and 24.2.
Turning to `Cc1ccc(CSc2nnc3c(n2)OC2(Nc4ccccc4-3)C(=O)Nc3ccc(F)cc32)cc1` (stereo not drawn), the IC50 is 6.29 µM and the fold change came out at 16.9.
`Nc1ccc2c3c(cccc13)C(=O)N(c1ccccc1)C2=O`: the IC50 is under 0.42 µM and the fold change amounted to 200.
The matching figures for `CCN(CC)c1ccc(/C=C/c2cc(-c3ccccc3)c3ccccc3n2)cc1`: 13.5 µM and 80.7.
For `CCN(c1ccc(N=Cc2c(O)n(Cc3ccc(OC)cc3)c(=O)c3ccccc23)cc1)C(C)C`, in that order: 2.17 µM and 132.
For the molecule `O=C1CCNc2c(Cl)cc(Cl)cc21`, the IC50 is 11.1 µM and the fold change was 2.51.
As for `CCCn1nc(-c2ccccc2)c2nc3ccccc3nc21`, the IC50 is 2.37 µM and the fold change came out at 32.
Consider `COc1nc(NCCC2=CCCCC2)nc(OC)n1`, for which the IC50 is > 54 µM (inactive) and the fold change turned out to be 1.
The matching figures for `CC(C)OC(=O)c1c2c(n3ccccc13)C(=O)c1ccccc1C2=O`: 3.85 µM and 2.93.
As to `CN1CCC2(CC1)C1CN(C)CC=C1C(C#N)=C(N)C2(C#N)C#N` (stereo not drawn), the IC50 is 2.49 µM and the fold change is 7.69.
The matching figures for `CCOC(=O)Cn1c(=O)c(-c2cc(Br)ccc2N)nc2ccccc21`: > 54 µM (inactive) and 6.44.
On to `N#C/C(=C\C=C\c1ccccc1)c1nc(-c2ccc3c(c2)OCO3)cs1`, for which the IC50 was 1.49 µM and the fold change was found to be 14.2.
The matching figures for `O=C(O)/C=C/c1cn(-c2ccccc2)nc1-c1ccc(-c2ccc([N+](=O)[O-])cc2)o1`: 5.25 µM and 2.34.
The matching figures for `CSc1nc(N(C)CCO)c2sc3nc(-c4ccco4)c4c(c3c2n1)CCC4`: > 54 µM (inactive) and 1.04.
Consider `O=c1oc2ccccc2nc1/C=C(\O)c1ccc(Br)cc1`, for which the IC50 was > 54 µM (inactive) and the fold change was determined as 6.17.
As for `CCOc1ccc(-c2c(C#N)c(N)nc3sc(C(=O)c4ccccc4)c(N)c23)cc1`, the IC50 is > 54 µM (inactive) and the fold change worked out at 4.62.
In the case of `CCCCOc1[nH]c2nc(-c3ccco3)n(Cc3ccco3)c(=N)c2c1C#N`, the IC50 is > 54 µM (inactive) and the fold change came out at 1.17.
Consider `NC(=O)c1cc2ccc(O)cc2oc1=NCc1ccccc1`, for which the IC50 is under 0.42 µM and the fold change was 34.3.
In the case of `Cc1cc2nc3c(=O)n(C4CCCCC4)c(=O)[nH]c3nc2cc1N`, the IC50 is under 0.42 µM and the fold change is 132.
`CCNc1cccc2c1C(=O)N(C)C2=O`: the IC50 is 0.96 µM and the fold change amounted to 24.2.
The matching figures for `CN1CCc2cc3c(c4c2[C@H]1[C@H](O)c1ccccc1-4)OCO3`: 10.3 µM and 2.19.
The matching figures for `Cc1ccc(C2=N/C(=C\c3c(C)nn(-c4ccccc4)c3N3CCCC3)C(=O)O2)cc1`: 5.71 µM and 6.13.
The matching figures for `CN1CCN(C2=Nc3c(Cl)cc(Cl)c4cccc2c34)CC1`: 9.23 µM and 3.09.
Consider `COc1ccc(N=Nc2nc3ccc(Br)cc3n2C)cc1`, for which the IC50 is > 54 µM (inactive) and the fold change turned out to be 1.28.
Consider `CCN(CC)CCN1C(=O)c2cccc3cc(N)cc(c23)C1=O`, for which the IC50 was 3.39 µM and the fold change came to 3.91.
In the case of `O=c1[nH]c(=S)n(-c2ccc(Br)cc2)c(O)c1C=Nc1ccc(N2CCOCC2)cc1`, the IC50 was 3.54 µM and the fold change amounted to 5.78.
For `Cc1ccc(NC(=O)CN2C(=O)S/C(=C/c3ccc(O)c([N+](=O)[O-])c3)C2=O)cc1C`, in that order: > 54 µM (inactive) and 0.99.
For `COc1ccccc1N1C(=O)C2C(C(=O)c3ccccc3)=NN(c3ccc(C)cc3)C2C1=O` (stereo not drawn), in that order: 3.66 µM and 19.5.
The matching figures for `COc1ccc(Cc2nnc(NC(=O)Cc3cccs3)s2)cc1OC`: > 54 µM (inactive) and 1.15.
As for `COc1ccc2nc(N3CCCC3)c(C#N)cc2c1`, the IC50 was under 0.42 µM and the fold change stood at 16.7.
The matching figures for `CCCCCCn1c(=O)[nH]c2nc3cc(N)ccc3nc2c1=O`: under 0.42 µM and 85.8.
For `Cc1ccc(-c2cc(-c3ccco3)c(C#N)c(=O)[nH]2)cc1`, in that order: > 54 µM (inactive) and 1.46.
With `Fc1ccc(C2=CC(c3ccc(Br)o3)n3ncnc3N2)cc1` (stereo not drawn), the IC50 was 2.62 µM and the fold change is 3.2.
The matching figures for `O=C(NCCCn1ccnc1)c1ccc2c(c1)OCCO2`: > 54 µM (inactive) and 1.03.
The matching figures for `Cc1ccc([N+](=O)[O-])cc1N=Nc1c(-c2ccc([N+](=O)[O-])cc2)[nH]n(C(N)=S)c1=O`: 1.83 µM and 1.04.
As for `COc1ccc(/C(O)=C/c2nc3ccccc3n(-c3ccccc3)c2=O)cc1`, the IC50 was > 54 µM (inactive) and the fold change came to 17.
The matching figures for `O=C1CSC(=S)N1/N=C/c1ccc(O)c(O)c1O`: 2.61 µM and 1.04.
For the molecule `O=C1NC(=O)N(Cc2ccco2)C(=O)/C1=C/c1ccc(-c2cccc([N+](=O)[O-])c2)o1`, the IC50 was 16.5 µM and the fold change stood at 2.15.
For the molecule `Cc1nc2nc(-c3cccs3)cn2nc1C`, the IC50 was 1.87 µM and the fold change was determined as 6.46.
As for `COc1ccc(-n2c(N)c(C#N)c3ccc([N+](=O)[O-])cc3c2=O)cc1`, the IC50 is > 54 µM (inactive) and the fold change was determined as 1.45.
For `COc1ccc2nc(N3CCCC(O)C3)c(C#N)cc2c1` (stereo not drawn), the IC50 was 14.6 µM and the fold change was 2.78.
For `O=C(N/N=C/c1ccc(F)cc1)c1cc(-c2ccco2)nc2ccccc12`, in that order: 3.56 µM and 0.96.
With `CCN(CC)c1ccc2cc(C(=O)NNC(=O)c3ccc(S(=O)(=O)N4CCCCC4)cc3)c(=O)oc2c1`, the IC50 is 3.01 µM and the fold change worked out at 87.1.
With `CCCCn1nc(-c2ccccc2)c2nc3ccccc3nc21`, the IC50 was 3.13 µM and the fold change is 22.6.
Take `Cc1cc[n+](-c2[nH]c(=O)sc2/C=N/N=C(\[O-])c2ccccc2)cc1C`: the IC50 is under 0.42 µM and the fold change was 16.5.
`N=C1/C(=C\c2ccc(-c3ccc(C(=O)O)cc3)o2)C(=O)N=C2SC=C(c3ccccc3)N12`: the IC50 is 3.3 µM and the fold change was 1.28.
As to `CCSc1cc(N2CCCC2)nc(-c2ccccc2Cl)n1`, the IC50 is 45.7 µM (inactive) and the fold change is 1.05.
As for `CS(=O)(=O)N1N=C(c2ccccc2)CC1c1ccc2c(c1)OCO2` (stereo not drawn), the IC50 is 9.83 µM and the fold change came out at 4.93.
Regarding `COc1ccccc1N1C(=O)C2C(C(=O)c3ccccc3)=NN(c3ccc(Br)cc3)C2C1=O` (stereo not drawn), the IC50 is > 54 µM (inactive) and the fold change is 16.6.
For `CCOC(=O)c1cc2n(c1N)-c1ccccc1C2=O`, in that order: under 0.42 µM and 104.
The matching figures for `Cc1cc(/C=C2\C(=O)NC(=O)N(c3cccc(Br)c3)C2=O)c(C)n1C`: 7.34 µM and 9.43.
Turning to `NC(=O)c1c(NC(=O)Cn2nc(C(=O)O)c3ccccc3c2=O)sc2c1CCCC2`, the IC50 is > 54 µM (inactive) and the fold change was 1.01.
For `O=C1/C(=C/c2ccco2)Oc2c1ccc(O)c2CN1CCCCC1`, in that order: 1.93 µM and 22.1.
The matching figures for `COC(=O)c1ccc(C)c(NC(=O)CCSc2ccc(Cl)cc2)c1`: > 54 µM (inactive) and 1.15.
For `Cc1n[nH]c(C)c1N1C(=O)c2cccc3c(N4CCCCCC4)ccc(c23)C1=O`, in that order: under 0.42 µM and 88.6.
On to `C/C(N)=C(/C#N)C(=O)CSc1nnc(Nc2ccccc2)s1`, for which the IC50 is > 54 µM (inactive) and the fold change came to 0.95.
For `COCCCNC(=O)c1ccc2c3c(onc13)-c1ccccc1C2=O`, in that order: under 0.42 µM and 217.
`O=[n+]1c2c(n([O-])c3cc(F)c(N4CCCC4)cc31)CCCC2`: the IC50 was under 0.42 µM and the fold change was 11.6.
On to `O=C1c2cccc3c(O)ccc(c23)C(=O)N1Cc1ccco1`, for which the IC50 is under 0.42 µM and the fold change came out at 134.
The matching figures for `Cc1c(O)c2c3c(cccc3c1O)C(=O)N(c1ccccc1)C2=O`: 1.41 µM and 7.05.
The matching figures for `C=C1c2cc(OC)ccc2NC(=O)N1CC`: 8.9 µM and 1.91.
The matching figures for `c1ccc2c(c1)CCCN2Cc1nnnn1CC1CCCO1` (stereo not drawn): 4.98 µM and 2.55.
With `CC(C)c1ccc(/C=C/C(=O)n2nnc3ccccc32)cc1`, the IC50 is > 54 µM (inactive) and the fold change is 0.857.
